Data taken from paper PMC3025356, “Mechanism of the Ca^2+-Dependent Interaction between S100A4 and Tail Fragments of Nonmuscle Myosin Heavy Chain IIA” (Journal of Molecular Biology, 2011).
Where two headings read alike, the source gives them in different places.

Legend:
[1] = biological target: T1, Δ10-S100A4 (Homo sapiens, UniProt P26447); assay: NMR ^1H,^15N HSQC titration of Δ10-S100A4 with myosin peptides; format: binding
T1 construct: truncated Δ10-S100A4, which lacks 10 C-terminal residues; made in house; host or cells: Escherichia coli (M9 minimal medium, 15N labelling)
T1 sequence (P26447 1-91 limits assumed, stated change not applied): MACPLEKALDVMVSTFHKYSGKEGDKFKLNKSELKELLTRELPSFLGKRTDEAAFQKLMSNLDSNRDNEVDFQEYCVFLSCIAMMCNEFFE

[2] = Stopped-flow tyrosine fluorescence, Ca^2+ dissociation from S100A4 constructs; format: binding
Experimental: (§1) Stopped-flow measurements were carried out using an SX18-MV apparatus (Applied Photophysics Ltd., Leatherhead, UK) with a dead time of 1.5 ms.[40] Records were generally captured on a logarithmic time base. Absorption (turbidity) measurements were usually recorded using a 10-mm pathlength, while fluorescence was recorded with a 2-mm pathlength for excitation and emission. The stated concentrations of components refer to the reaction chamber after mixing, unless otherwise indicated. Tyrosine fluorescence was excited at 280 nm, and the emission was collected through a UG11 bandpass filter plus a 305-nm longpass filter.[18] Fluorescein fluorescence was excited at 480 nm, and the emission was detected through a 515-nm longpass filter. Quin-2 fluorescence was measured by excitation at 336 nm, and emission was collected with a 455-nm longpass filter. For simultaneous recording of light scatter, a second channel was monitored through a UG11 filter. Rate constants were obtained by fitting to single-exponential or double-exponential functions using Kaleidagraph (Synergy Software) or Applied Photophysics Pro-Data software. Modeling of kinetic schemes was performed using Berkeley Madonna software.
Dissociation of Ca2+ from wild type S100A4 (black), Y19F mutant (blue) and Y75F mutant (red) monitored by tyrosine fluorescence. 13 M of each S100A4 construct plus 100 µM Ca2+ was mixed with 200 µM EGTA (reaction chamber concentrations) and the tyrosine fluorescence monitored. The buffer was 20 mM NaCl, 10 mM HEPES, 2 mM DTT at pH 7.5 and 20 °C. Fits to a single exponential function yielded rate constants of 20 s-1, 113 s-1 and 45 s-1 for wild-type, Y19F mutant and Y75F mutant respectively. (d) Dissociation of Ca2+ from wild type S100A4 (black), E33Q mutant (blue) and D63N mutant (red) monitored by tyrosine fluorescence. 13 M of each S100A4 construct plus 15 M Ca2+ was mixed with 200 M EGTA (reaction chamber concentrations) and the tyrosine fluorescence monitored. Fits to a single exponential function yielded rate constants of 22 s-1 and 49 s-1 for wild-type and E33Q construct respectively, while that […]
The records for the mutants were vertically offset for clarity in both […]

[3] = Isothermal titration calorimetry of Ca^2+ binding to S100A4 constructs
Experimental: Fig. 2 ITC records for Ca^2+ binding to S100A4 constructs: (a) 75 μM wild type at 30 °C; (b) 75 μM wild type at 10 °C; (c) 75 μM E33Q construct at 30 °C; (d) 300 μM D63N construct at 30 °C. For mutant constructs data at 10 °C, see Fig. S1. All preparations were dialysed against the same buffer of 20 mM NaCl, 10 mM Hepes, and 2 mM DTT (pH 7.5).
ITC data were collected using a VP-ITC microcalorimeter (MicroCal Ltd., Northampton, MA) and analysed by fitting to a single-site binding equation or a two-site binding equation using MicroCal Origin software.

[4] = Stopped-flow Quin-2 fluorescence, Ca^2+ dissociation from / binding to S100A4 constructs (no target); details: single exponential fit, no target
Source text: In order to increase the signal-to-noise ratio of the Ca^2+ dissociation transients, we used Quin-2 as combined fluorescent indicator and high-affinity chelator.[19,20] These measurements confirmed that Ca^2+ dissociated from wild-type protein with a rate constant of 16 s^− 1 (Fig. 3a; cf. 20 s^− 1 for the tyrosine signal). Given the poor signal-to-noise ratio of the tyrosine signal, the difference is barely significant but may reflect the fact that the Quin-2 signal represents at least a two-step sequential reaction (Ca^2+ dissociation from S100AS4, followed by rapid binding to Quin-2).
Fig. 3 (a) Dissociation of Ca^2+ from wild-type S100A4 (black), E33Q mutant (blue), and D63N mutant (red), as monitored by Quin-2 fluorescence. […] The records for the mutants were vertically offset for clarity. (b) Ca^2+ binding to S100A4 as determined from the amplitude of the resolved transient (k ≈ 20 s^− 1) when 6.5 μM S100A4 was preincubated with various added [Ca^2+] and then mixed with 100 μM Quin-2. The amplitude was converted into a bound concentration from an independent calibration using the same Quin-2 solution and known free [Ca^2+]. […] While either model could account for the data, the measured stoichiometry from ITC (Table 1) favors the cooperative model.
as §1

[5] = 13 μM S100A4 + 100 μM Ca^2+ mixed with 200 μM EGTA, 20 mM NaCl, 10 mM Hepes, 2 mM DTT, pH 7.5, 20 °C
[6] = 10 °C and 30 °C, read-out: Kd for Ca^2+
[7] = 10 °C, 75 μM protein (D63N 300 μM), 20 mM NaCl, 10 mM Hepes, 2 mM DTT, pH 7.5
[8] = 30 °C, 75 μM protein (D63N 300 μM), 20 mM NaCl, 10 mM Hepes, 2 mM DTT, pH 7.5
[9] = first site, Ca^2+ binding, 30 °C, 75 μM protein (D63N 300 μM), 20 mM NaCl, 10 mM Hepes, 2 mM DTT, pH 7.5, read-out: K1d
[10] = first site, 10 °C, wild type and E33Q cooperative, read-out: K1d

Row | Substance | Ca^2+ dissociation rate constant (tyrosine) [2, 5] | Kd [3, 6] | n1 (Ca^2+ per monomer) [3, 7] | n1 (Ca^2+ per monomer) [3, 8] | Kd [3, 9] | Kd [3, 10] | Ca^2+ dissociation rate constant (Quin-2) [4] | further results
1 | M15^C: myosin peptide G1924-G1938, acetylated N-terminus, amidated C-terminus (Ac-GDLPFVVPRRMARKG-NH2) | – | – | – | – | – | – | – | NMR exchange regime ([1]; 0.2 mM Δ10-S100A4, Ca^2+, 35 °C): fast exchange; affinity by NMR ([1]; 0.2 mM Δ10-S100A4, up to 9-fold molar excess of peptide): too low to be measured by NMR
2 | Y19F: S100A4 mutant, tyrosine 19 to phenylalanine | 113 s^− 1 | – | – | – | – | – | – | –
3 | Δ10-S100A4: truncated S100A4, lacks 10 C-terminal residues | – | – | – | – | – | – | – | interaction in the absence of Ca^2+ ([1]; absence of Ca^2+): No interaction was observed
4 | Y75F: S100A4 mutant, tyrosine 75 to phenylalanine | 45 s^− 1 | – | – | – | – | – | – | –
5 | D63N: S100A4 mutant compromised in the EF2 Ca^2+ binding loop | – | 65 to 70 µM | 0.44 ± 0.01 Ca^2+ per monomer | 0.54 ± 0.01 Ca^2+ per monomer | 68 ± 1 µM | 65 ± 3 µM | 500 s^− 1 | reduction in Ca^2+ affinity ([3]; compromised EF2 site, as suggested by ITC): 30 -fold
6 | E33Q: S100A4 mutant compromised in the EF1 Ca^2+ binding loop | – | 1 to 10 µM | 0.96 ± 0.09 Ca^2+ per monomer | 0.33 ± 0.03 Ca^2+ per monomer | 10.9 ± 1.9 µM | ~1 µM | 35 s^− 1 | Ca^2+ dissociation rate constant (tyrosine) ([2]; 13 μM S100A4 + 15 μM Ca^2+ mixed with 200 μM EGTA): 49 s^− 1
